Source: patent publication US20110189297A1, “STABLE SOLID ORAL DOSAGE CO-FORMULATIONS” (Sequicia Pharmaceuticals, priority 2008, published 2011)

Experiments:
CYP3A = settings: human liver microsomes, in vitro; cited from earlier work
[1] = Dissolution study of hand-filled capsules in simulated gastric fluid, HPLC; format: physicochemical; settings: capsule in 500 mL simulated gastric fluid
Description: Commercially available 200 mg Reyataz hard gelatin capsules (lot number 6E3004B) were emptied by hand to create a stockpile of Atazanavir (ATV) commercial powder. This commercially available 200 mg Reyataz capsule contains 200 mg ATV as Atazanavir sulphate plus 178 mg of excipients (crospovidone, lactose monohydrate and magnesium stearate) for a total weigh to of 378 mg. 189 mg of the stockpiled commercial powder (equivalent to 100 mg Atazanavir) was blended by tumbling in a glass vial with 100 mg of the spray-dried amorphous dispersion (SDD) of Compound II/EUDRAGIT L-100 (EL-100) where the Compound II:EL100 ratio was 1:1 (produced by Hovione FarmaCientia) and filled by hand into “0” hard gelatin capsules. Therefore, each hand-filled “0” hard gelatin capsule contained 100 mg ATV, […] of Compound II:EL100 (1:1) SDD and 89 mg of excipients. These capsules were dropped into 500 mL of simulated gastric fluid and the amounts of Compound II and ATV in the resulting suspension was determined by HPLC (see Table 1 and FIG. 1).

[2] = Pharmacokinetic study in beagle dogs, oral dry powder in capsules; format: in vivo
Description: A pharmacokinetic study was performed in beagle dogs to evaluate the performance of the oral dosage formulation prepared in Example 1 above. […] Both plasma levels and duration of exposure was increased.
The plasma exposure of the compound of Formula II from Compound II:EL100 (1:1) SDD powder alone was compared to co-administration with Atazanavir powder (FIG. 3). The ratio of the AUCs from mean plasma concentrations was 2.5, but the differences among individual animal was not statistically significant. The apparent increase in mean Compound II exposure came mostly later in the time course, after 8 hours.

[3] = Inherent anti-retroviral activity

| Compound | metabolising enzyme (CYP3A) | % of maximal ATV Conc. ([1]; 0 min) [%] | % of maximal ATV Conc. ([1]; 5 min) [%] | % of maximal ATV Conc. ([1]; 10 min) [%] | % of maximal ATV Conc. ([1]; 15 min) [%] | % of maximal ATV Conc. ([1]; 20 min) [%] | % of maximal ATV Conc. ([1]; 25 min) [%] | % of maximal ATV Conc. ([1]; 30 min) [%] | ratio of the AUCs from mean plasma concentrations of Compound II ([2]; 10 mg/kg Compound II from Compound II:EL100 (1:1) SDD with 20 mg/kg Atazanavir vs alone) | Cmax of Compound II, change on co-administration ([2]; Compound II:EL100 (1:1) SDD with Atazanavir vs alone) | inherent anti-retroviral activity [3] | % of maximal Compound II Conc. ([1]; 0 min) [%] | % of maximal Compound II Conc. ([1]; 5 min) [%] | % of maximal Compound II Conc. ([1]; 10 min) [%] | % of maximal Compound II Conc. ([1]; 15 min) [%] | % of maximal Compound II Conc. ([1]; 20 min) [%] | % of maximal Compound II Conc. ([1]; 25 min) [%] | % of maximal Compound II Conc. ([1]; 30 min) [%] |
| --- | --- | --- | --- | --- | --- | --- | --- | --- | --- | --- | --- | --- | --- | --- | --- | --- | --- | --- |
| COC(=O)N[C@H](C(=O)N[C@@H](Cc1ccccc1)[C@@H](O)CN(Cc1ccc(-c2ccccn2)cc1)NC(=O)[C@@H](NC(=O)OC)C(C)(C)C)C(C)(C)C.O=S(=O)(O)O [Atazanavir, Atazanavir sulfate, reference compound] | metabolized by CYP3A | 0 | 88.9 | 93.4 | 100.0 | 99.4 | 99.1 | 97.9 | – | – | – | – | – | – | – | – | – | – |
| CO[C@H](CN(CC(C)C)S(=O)(=O)c1ccc2occc2c1)[C@H](Cc1ccccc1)NC(=O)OC(C)(C)C [Compound II] | – | – | – | – | – | – | – | – | 2.5 | slightly increased | no inherent anti-retroviral activity | 0 | 27.6 | 61.9 | 54.5 | 88.2 | 89.8 | 100.0 |
